Data reported in US4526892A, “Dimethylaminoalkyl-3-(ergoline-8'βcarbonyl)-ureas” (Farmitalia Carlo Erba, S.p.A., priority 1982, dated 1985).

Key:
[1] = test system: spontaneously hypertensive male rats, strain SHR; assay: Change in heart rate (HR) in SHR rats; assay type: in vivo, rat
Procedure: (§1) Four spontaneously hypertensive male rats, strain SHR, weighing 250-300 g for each group were used. The animals were treated once a day for four consecutive days. Drugs were administered by gastric gavage, suspended in 5% gum arabic (0.2 ml/100 g body weight) and blood pressure (BP) and heart rate (HR) were measured by indirected tail/cuff method (BP Recorder W+W). Blood pressure and heart rate were measured on the first and fourth days of treatment 1 hour before and 1 and 5 hours after drug administration. Hydralazine and α-methyl-Dopa were used as reference drugs.

[2] = test system: spontaneously hypertensive male rats, strain SHR; assay: Anti-hypertensive activity: change in blood pressure (BP) in SHR rats; assay type: in vivo, rat; conditions: for Hypotensive activity vs Hydralazine: compound 25 mg/kg vs Hydralazine 5 mg/kg; for Tolerance on the 4th day: compound 25 mg/kg, unlike Hydralazine
Procedure: as §1

[3] = test system: mice; assay: Acute toxicity: orientative toxicity in mice; assay type: in vivo, mouse; conditions: per os, observed for seven days
Description: The male mice for each group were orally treated with drugs at different dose levels for the determination of orientative toxicity.

[4] = test system: mice; conditions: per os, data of LD50 from the literature; cited from earlier work
[5] = 5 mg/kg os, 1st day, 1 hour after dosing
[6] = 5 mg/kg os, 1st day, 5 hours after dosing
[7] = 5 mg/kg os, 4th day, 1 hour after dosing
[8] = 5 mg/kg os, 4th day, 5 hours after dosing
[9] = 25 mg/kg os, 1st day, 1 hour after dosing
[10] = 25 mg/kg os, 1st day, 5 hours after dosing
[11] = 25 mg/kg os, 4th day, 1 hour after dosing
[12] = 25 mg/kg os, 4th day, 5 hours after dosing
[13] = 30 mg/kg os, 1st day, 1 hour after dosing
[14] = 30 mg/kg os, 1st day, 5 hours after dosing
[15] = 30 mg/kg os, 4th day, 1 hour after dosing
[16] = 30 mg/kg os, 4th day, 5 hours after dosing
[17] = 100 mg/kg os, 1st day, 1 hour after dosing
[18] = 100 mg/kg os, 1st day, 5 hours after dosing
[19] = 100 mg/kg os, 4th day, 1 hour after dosing
[20] = 100 mg/kg os, 4th day, 5 hours after dosing

Compound: CN1C[C@H](C(=O)N(C(=O)NC2CCCCC2)C2CCCCC2)C[C@@H]2c3cccc4[nH]cc(c34)C[C@H]21 [Example 7, 1,3-dicyclohexyl-3-(6'-methylergoline-8'β-carbonyl)urea]
- Change in HR [1, 5]: 0 beats/minute
- Change in HR [1, 6]: -10 beats/minute
- Change in HR [1, 7]: 0 beats/minute
- Change in HR [1, 8]: 0 beats/minute
- Change in HR [1, 9]: +5 beats/minute
- Change in HR [1, 10]: -20 beats/minute
- Change in HR [1, 11]: -17 beats/minute
- Change in HR [1, 12]: -2 beats/minute
- Effect on BP (in words) ([2]; 5 mg/kg): the antihypertensive effect was less remarkable
- Change in BP [2, 5]: -12 mmHg
- Change in BP [2, 6]: -10 mmHg
- Change in BP [2, 7]: -15 mmHg
- Change in BP [2, 8]: -7 mmHg
- Change in BP [2, 9]: -30 mmHg
- Change in BP [2, 10]: -57 mmHg
- Change in BP [2, 11]: -30 mmHg
- Change in BP [2, 12]: -10 mmHg
- Effect on BP (in words) ([2]; 25 mg/kg, 1st and 4th days): significant decrease BP
- Hypotensive activity vs Hydralazine [2]: comparable to that of Hydralazine
- Tolerance on the 4th day [2]: no tolerance on the 4th day
- Orientative toxicity in mice [3]: > 800 mg/kg

Compound: CO[C@]12C[C@@H](C(=O)N(C(=O)NC3CCCCC3)C3CCCCC3)CN(C)[C@@H]1Cc1c[nH]c3cccc2c13 [Example 9, 1,3-dicyclohexyl-3-(10'α-methoxy-6'-methylergoline-8'β-carbonyl)-urea]
- Change in HR [1, 9]: -20 beats/minute
- Change in HR [1, 10]: -10 beats/minute
- Change in HR [1, 11]: 0 beats/minute
- Change in HR [1, 12]: -20 beats/minute
- Change in BP [2, 9]: -30 mmHg
- Change in BP [2, 10]: -37 mmHg
- Change in BP [2, 11]: -5 mmHg
- Change in BP [2, 12]: -23 mmHg
- Effect on BP (in words) ([2]; 25 mg/kg, 1st day): marked decrease of BP
- Effect on BP (in words) ([2]; 25 mg/kg, 4th day, first hour after dosing): the hypotensive effect was still observed on the fourth day even if less remarkable
- Hypotensive activity vs Hydralazine [2]: comparable to that of Hydralazine
- Tolerance on the 4th day [2]: no tolerance on the 4th day
- Orientative toxicity in mice [3]: > 800 mg/kg

Compound: CO[C@]12C[C@@H](C(=O)N(C(=O)NC3CCCCC3)C3CCCCC3)CN(C)[C@@H]1Cc1cn(C)c3cccc2c13 [Example 10, 1,3-dicyclohexyl-3-(10'α-methoxy-1',6'-dimethylergoline-8'β-carbonyl)-urea]
- Change in HR [1, 5]: -5 beats/minute
- Change in HR [1, 6]: -20 beats/minute
- Change in HR [1, 7]: -20 beats/minute
- Change in HR [1, 8]: +15 beats/minute
- Change in HR [1, 9]: -2 beats/minute
- Change in HR [1, 10]: -12 beats/minute
- Change in HR [1, 11]: -17 beats/minute
- Change in HR [1, 12]: -20 beats/minute
- Change in BP [2, 5]: -11 mmHg
- Change in BP [2, 6]: -22 mmHg
- Change in BP [2, 7]: -15 mmHg
- Change in BP [2, 8]: -16 mmHg
- Change in BP [2, 9]: -26 mmHg
- Change in BP [2, 10]: -41 mmHg
- Change in BP [2, 11]: -51 mmHg
- Change in BP [2, 12]: -40 mmHg
- Hypotensive activity vs Hydralazine [2]: comparable to that of Hydralazine
- Tolerance on the 4th day [2]: no tolerance on the 4th day
- Effect on BP (in words) ([2]; os, all tested doses of the compound): a decrease of BP was observed; this effect was long lasting
- Orientative toxicity in mice [3]: > 800 mg/kg

Compound: C=CCN1C[C@H](C(=O)N(C(=O)NC2CCCCC2)C2CCCCC2)C[C@@H]2c3cccc4[nH]cc(c34)C[C@H]21 [Example 15, 1,3-dicyclohexyl-3-(6'-allylergoline-8'β-carbonyl)-urea]
- Change in HR [1, 9]: -20 beats/minute
- Change in HR [1, 10]: -20 beats/minute
- Change in HR [1, 11]: -27 beats/minute
- Change in HR [1, 12]: -10 beats/minute
- Change in BP [2, 9]: -35 mmHg
- Change in BP [2, 10]: -27 mmHg
- Change in BP [2, 11]: -47 mmHg
- Change in BP [2, 12]: -38 mmHg
- Effect on BP (in words) ([2]; 25 mg/kg, 1st and 4th days): decrease in BP both on the 1st and 4th days of treatment but more pronounced on the 4th day
- Hypotensive activity vs Hydralazine ([2]; 4th day): much more remarkable
- Hypotensive activity vs Hydralazine ([2]; first day): comparable to that of Hydralazine
- Orientative toxicity in mice [3]: > 800 mg/kg

Compound: C[C@](N)(Cc1ccc(O)c(O)c1)C(=O)O [α-methyl-Dopa, reference compound]
- LD50 (orientative toxicity column) [4]: 5300 mg/kg
- Change in HR [1, 13]: +35 beats/minute
- Change in HR [1, 14]: +40 beats/minute
- Change in HR [1, 15]: +45 beats/minute
- Change in HR [1, 16]: +30 beats/minute
- Change in HR [1, 17]: +70 beats/minute
- Change in HR [1, 18]: +40 beats/minute
- Change in HR [1, 19]: +50 beats/minute
- Change in HR [1, 20]: +10 beats/minute
- Effect on HR (in words) ([1]; SHR rats, os): increase of HR
- Change in BP [2, 13]: -10 mmHg
- Change in BP [2, 14]: -20 mmHg
- Change in BP [2, 15]: -10 mmHg
- Change in BP [2, 16]: 0 mmHg
- Change in BP [2, 17]: -10 mmHg
- Change in BP [2, 18]: -25 mmHg
- Change in BP [2, 19]: -20 mmHg
- Change in BP [2, 20]: -25 mmHg
